Test results published in US10000771B2, “Nuclear targeting sequences” (Yeda Research and Development Co. Ltd., priority 2007, dated 2018).
Ends that are not written are not given here. 2GFP = dimer of GFP proteins

Assays:
endogenous ERKs = assay: Effect of 2GFP chimeras on nuclear translocation of endogenous ERKs; type: cell-based; details: CHO cells overexpressing the chimera, TPA 250 nM, 15 min
Procedure: FIGS. 10A-10X illustrate the effects of the 2GFP chimeras on the nuclear translocation of endogenous ERKs. CHO cells overexpressing 2GFP, 2GFP-SPS, 2GFP-APA and 2GFP-EPE were serum starved and treated with or without TPA (250 nM, 15 min). Subsequently, the cells were fixed and stain with anti-ERK2 (C-14) Ab and with DAPI.
Immunofluorescence Microscopy. Cells were fixed (30 min in 3% paraformaldehyde in PBS or 10 min with ice-cold methanol), followed by 5-min permeabilization with 0.2% Triton X-100 in PBS (23° C.). The fixed cells were sequentially incubated with the appropriate Abs (45 min) followed by rhodamine-conjugated secondary Abs (45 min) and DAPI. Slides were visualized using a fluorescence microscope (Nikon, Japan) at 400× magnifications.

Nup153c = assay: Interaction with recombinant His-Nup153c; type: binding; details: immunoprecipitated ERK2 incubated with 0.5 μg recombinant His-Nup153c
Procedure: FIGS. 19A-19C are autoradiographs illustrating that phospho-SPS interacts with importin-7 and releases Nup153c binding without involvment of importin-β. […]. Interaction of ERK2 with Importin-7 is enhanced by EGF stimulation and EPE mutation. HeLa cells overexpressing WT-ERK (WT), ERK-APA (APA), ERK-EPE (EPE) or GFP were serum starved and treated with EGF (50 ng/ml, 10 min). The extracts of the treated cells were then subjected to coimmunoprecipitation using A/G beads pre-conjugated with anti GFP Ab and mild washes. The coimmunoprecipitated importin-7 (first panel) and importin-β (third panel), as well as their loading amounts (panels 2 and 4 respectively) were determined by WB using anti importin-7 (αImp7) and importin-β (αImpβ) Abs. The equal amount of immunoprecipitated ERKs was determined with anti GFP (αGFP; IP) Ab. FIG. 19B. Interaction of 2GFP-SPS and its mutants with importin-7. HeLa cells overexpressing 2GFP, 2GFP-SPS, 2GFP-APA and 2GFP-EPE constructs were subjected to coimmunoprecipitation as described in FIG. 19A (without EGF stimulation). FIG. 19C. Interaction of NUP153 with WTERK2 and its APA and EPE mutants. NUP153c is elevated in APA-ERK2, but reduced in EPE-ERK2. Immunoprecipitated and stringently washed WT-ERK2 (WT), APA-ERK2 (APA) or ERK2 from […] cells pre-treated with or without TPA (250 nM, 15 min) were incubated with 0.5 μg recombinant His-Nup153c. […]

COS7 cells = assay: Subcellular fractionation of GFP-ERK2 constructs; type: cell-based; details: 48 hr after transfection, serum-starved
Procedure: FIG. 6 is an autoradiograph illustrating the subcellular fractionation of WT-GFP-ERK2 (WT), APA-GFP-ERK2 (APA), or EPE-GFP-ERK2 (EPE). COS7 cells were grown in 10 cm plates and transfected with the above ERK2 constructs. Twenty-four hr after transfection the cells were serum-starved for 16 hr and subjected to cellular fractionation as described under materials and Methods. Western blot analysis of aliquots of the fractions were stained with anti GFP Ab to detect the ERK2 and its mutant, and with anti tubulin and anti c-Jun Abs as markers for the cytoplasmic and nuclear fractions respectively.
Cellular Fractionation: Transfected COS7 cells were starved (0.1% FBS) for 16 h, after which they were washed with ice-cold PBS, suspended in ice-cold buffer H, and centrifuged (12,000×g, 5 min). Then, the nuclear and cytosolic fractions were isolated as described [H. Rubinfeld, T. Hanoch, R. Seger, J. Biol. Chem. 274, 30349 (1999)]. Briefly, the pellets were suspended in 0.1% NP-40 followed by centrifugation (12,000×g, 5 min). The supernatant, containing the cytosolic fraction, was boiled in sample buffer. The pellet was suspended in extraction buffer (420 mM Nacl, 50 mM β-glycerophosphate, 0.5 mM Na3VO4, 1.5 mM MgCl2, 0.2 mM EDTA, 1 mM DTT, 25% glycerol), incubate on ice for 10 min, sonicated (50 W, 2×7 sec), and centrifuged (12,000×g, 5 min). […]

CHO cells = assay: Fluorescence microscopy of ERK2 constructs (subcellular localization); type: cell-based
Procedure: FIGS. 1A-1R are photomicrographs illustrating the role of SPS in the non-regulated accumulation of ERK2 in the nucleus. CHO (FIGS. 1A-F and 1M-R) or COS7 cells (FIGS. 1G-L) were grown on cover slips and transfected with WT-ERK2, or the mutants 244-6A and Δ244-6. Twenty-four hr following transfection, the cells were serum-starved (16 hr), fixed, stained with DAPI and visualized using a fluorescent microscope.
FIGS. 2A-2X are photomicrographs illustrating the role of SPS in the stimulated nuclear translocation of ERK2. CHO cells were grown on cover slips and co-transfected with HA-MEK1 together with either WT-ERK2, 244-6A, or Δ244-6. Twenty-four hr after transfection, the cells were serum starved for 16 hours, treated with TPA (250 nM, 15 min), except in WT-10 where the cells were treated with 10 nM TPA for 15 min. After treatments the cells were fixed and stained with either anti-HA Ab or DAPI.
FIGS. 5A-5F are photomicrographs illustrating that mutating the Ser residues in the SPS to Glu induces the nuclear accumulation of ERK2. CHO cells were grown on cover slips and transfected with WT-GFP-ERK2 (WT), APA-GFP-ERK2 (APA), or EPE-GFP-ERK2 (EPE). […]
Immunofluorescence Microscopy. […] Slides were visualized using a fluorescence microscope (Nikon, Japan) at 400× magnifications. […]

## 2GFP-SPS: 2GFP with the 19 amino acid stretch containing the SPS of ERK2 (SEQ ID NO: 6) fused to its C terminus (2GFP-LDQLNHILGILGSPSQEDL)
Endogenous ERKs
  inhibition of TPA-induced translocation of endogenous ERKs: inhibited

## WT-ERK2: wild-type ERK2 fused to GFP, prepared in pEGFP C1 [reference compound]
Nup153c
  interaction with Nup153: interacts with Nup153
COS7 cells
  localized in the nucleus: about 75%
CHO cells; CHO cells cotransfected with MEK1, TPA 250 nM
  localization upon TPA stimulation: translocated into the nucleus upon TPA stimulation
CHO cells; CHO cells cotransfected with MEK1, TPA 10 nM for WT-ERK2 and 250 nM for the mutants
  localization at equivalent TEY phosphorylation levels: localized to the nucleus
